Columns and labels:
[1] = Acute toxicity in po dosed albino mouse; format: organism-based; conditions: in vivo, read-out: ALD50
Rattus norvegicus [2] = experiment: Antiinflammatory activity in Charles-Foster albino rat assessed as inhibition of carrageenan-induced hind paw edema at 50 mg/kg, po relative to control; format: functional
Rattus norvegicus [3] = experiment: Antiinflammatory activity in Charles-Foster albino rat assessed as inhibition of carrageenan-induced hind paw edema at 100 mg/kg, po relative to control; format: functional
Rattus norvegicus [4] = experiment: Antiinflammatory activity in Charles-Foster albino rat assessed as inhibition of carrageenan-induced hind paw edema at 25 mg/kg, po relative to control; format: functional

Structure (SMILES)	LD50 [1] [mg/kg]	inhibition in vivo at 50 mg/kg (Rattus norvegicus [2]) [%]	inhibition in vivo at 100 mg/kg (Rattus norvegicus [3]) [%]	inhibition in vivo at 25 mg/kg (Rattus norvegicus [4]) [%]
O=C1CSC(c2ccc(O)cc2)N1n1c(CSc2nnc(-c3ccncc3)o2)nc2ccc(Br)cc2c1=O (stereo not drawn)	> 1000	32.7		
COc1ccc(/C=N/n2c(CSc3nnc(-c4ccncc4)o3)nc3ccc(Br)cc3c2=O)cc1	> 1000	24.4		
O=c1c2cc(Br)ccc2nc(CSc2nnc(-c3ccncc3)o2)n1/N=C/c1ccccc1	> 1000	19.4		
O=c1c2cc(Br)ccc2nc(CSc2nnc(-c3ccncc3)o2)n1/N=C/c1ccc(Cl)cc1	> 1000	26.4		
COc1ccc(C2C(Cl)C(=O)N2n2c(CSc3nnc(-c4ccncc4)o3)nc3ccccc3c2=O)cc1 (stereo not drawn)	> 1000	26.1		
O=C1CSC(c2ccc(Cl)cc2)N1n1c(CSc2nnc(-c3ccncc3)o2)nc2ccccc2c1=O (stereo not drawn)	> 1000	34.1		
O=c1c2cc(Br)ccc2nc(CSc2nnc(-c3ccncc3)o2)n1/N=C/c1ccc(O)cc1	> 1000	22.3		
O=C1C(Cl)C(c2ccccc2)N1n1c(CSc2nnc(-c3ccncc3)o2)nc2ccccc2c1=O (stereo not drawn)	> 1000	25.1		
COc1ccc(C2SCC(=O)N2n2c(CSc3nnc(-c4ccncc4)o3)nc3ccc(Br)cc3c2=O)cc1 (stereo not drawn)	> 1000	35.3		
O=C1CSC(c2ccc(O)cc2)N1n1c(CSc2nnc(-c3ccncc3)o2)nc2ccccc2c1=O (stereo not drawn)	> 1000	31.7		
O=C1C(Cl)C(c2ccc(Cl)cc2)N1n1c(CSc2nnc(-c3ccncc3)o2)nc2ccccc2c1=O (stereo not drawn)	> 1000	27.9		
COc1ccc(C2C(Cl)C(=O)N2n2c(CSc3nnc(-c4ccncc4)o3)nc3ccc(Br)cc3c2=O)cc1 (stereo not drawn)	> 1000	28.6		
O=C1C(Cl)C(c2ccc(Cl)cc2)N1n1c(CSc2nnc(-c3ccncc3)o2)nc2ccc(Br)cc2c1=O (stereo not drawn)	> 1000	29.9		
O=C1CSC(c2ccccc2)N1n1c(CSc2nnc(-c3ccncc3)o2)nc2ccccc2c1=O (stereo not drawn)	> 1000	30.1		
CCCCC1C(=O)N(c2ccccc2)N(c2ccccc2)C1=O [PHENYLBUTAZONE]		36.8	66.4	25.4
COc1ccc(C2SCC(=O)N2n2c(CSc3nnc(-c4ccncc4)o3)nc3ccccc3c2=O)cc1 (stereo not drawn)	> 1000	33.8		
COc1ccc(/C=N/n2c(CSc3nnc(-c4ccncc4)o3)nc3ccccc3c2=O)cc1	> 1000	20		
O=C1C(Cl)C(c2ccc(O)cc2)N1n1c(CSc2nnc(-c3ccncc3)o2)nc2ccccc2c1=O (stereo not drawn)	> 1000	25.7		
O=C1CSC(c2ccccc2)N1n1c(CSc2nnc(-c3ccncc3)o2)nc2ccc(Br)cc2c1=O (stereo not drawn)	> 1000	31.3		
O=C1C(Cl)C(c2ccc(O)cc2)N1n1c(CSc2nnc(-c3ccncc3)o2)nc2ccc(Br)cc2c1=O (stereo not drawn)	> 1000	27.4		
O=c1c2ccccc2nc(CSc2nnc(-c3ccncc3)o2)n1/N=C/c1ccc(O)cc1	> 1000	18.2		
O=c1c2ccccc2nc(CSc2nnc(-c3ccncc3)o2)n1/N=C/c1ccccc1	> 1000	16.3		
O=C1CSC(c2ccc(Cl)cc2)N1n1c(CSc2nnc(-c3ccncc3)o2)nc2ccc(Br)cc2c1=O (stereo not drawn)	> 1000	25.2	66.9	25.2
O=c1c2ccccc2nc(CSc2nnc(-c3ccncc3)o2)n1/N=C/c1ccc(Cl)cc1	> 1000	23.7		
O=C1C(Cl)C(c2ccccc2)N1n1c(CSc2nnc(-c3ccncc3)o2)nc2ccc(Br)cc2c1=O (stereo not drawn)	> 1000	26.3		
